Measurements taken from patent US20080140450A1, “Treatment of metabolic syndrome with norfluoxetine” (AMPLA Pharmaceuticals Inc., priority 2006, published 2008).

How the values were obtained:
CB1 receptor = CB1 receptor (Homo sapiens, UniProt P21554); assay: functional activity versus the CB1 receptor; details: qualitative statement, no method or numbers given
Description: Without wishing to be restricted by the proposal, this cannabinoid activity may mediate the utility of these compounds for the treatment of metabolic syndrome or the disorders associated with metabolic syndrome.

[1] = test system: monoamine uptake, especially serotonin; details: qualitative, known from U.S. Pat. No. 4,313,896; cited from earlier work

CB1 receptor, sequence (P21554 whole entry): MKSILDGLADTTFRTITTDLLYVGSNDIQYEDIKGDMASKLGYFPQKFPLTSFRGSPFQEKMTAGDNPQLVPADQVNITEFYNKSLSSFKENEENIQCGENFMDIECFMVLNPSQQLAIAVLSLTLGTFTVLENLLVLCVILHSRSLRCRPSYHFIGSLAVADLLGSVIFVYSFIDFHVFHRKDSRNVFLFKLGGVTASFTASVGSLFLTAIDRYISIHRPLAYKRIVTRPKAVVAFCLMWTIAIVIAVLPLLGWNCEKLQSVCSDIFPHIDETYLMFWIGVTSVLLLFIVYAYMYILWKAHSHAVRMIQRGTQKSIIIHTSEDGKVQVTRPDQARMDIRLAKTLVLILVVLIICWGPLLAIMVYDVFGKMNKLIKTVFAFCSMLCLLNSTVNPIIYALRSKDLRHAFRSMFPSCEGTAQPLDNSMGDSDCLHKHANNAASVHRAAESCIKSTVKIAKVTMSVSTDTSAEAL

SMILES | functional activity versus the CB1 receptor (mode of action) (CB1 receptor) | block of monoamine uptake [1]
CNCC[C@H](Oc1ccc(C(F)(F)F)cc1)c1ccccc1 [(S)-Fluoxetine] | inverse agonist of CB1 | –
CNCC[C@@H](Oc1ccc(C(F)(F)F)cc1)c1ccccc1 [(R)-fluoxetine] | antagonist of CB1 | –
NCCC(Oc1ccc(C(F)(F)F)cc1)c1ccccc1 (racemic) [Norfluoxetine, 3-(4-trifluoromethylphenoxy)-3-phenylpropylamine] | antagonist of CB1 | block monoamine uptake, especially serotonin
